Test results as given in patent publication US20230303486A1, “CYCLOBUTYL-UREA DERIVATIVES” (Idorsia Pharmaceuticals Ltd, priority 2020, published 2023).
Read-outs that look alike come from different tables or passages of the source.

Tested on: primary neuronal cultures from embryonic rat brains
Assay: Rat oscillation assay (FLIPR, neuronal calcium oscillations)
Format: cell-based
Experimental: This assay is a functional phenotypic assay designed to mimic epileptic seizures using primary neuronal cultures from embryonic rat brains, which form a functional neuronal network that generate synchronized intracellular calcium concentration oscillations when cultured at high density in 384-well plate. The epileptic phenotype is induced by incubating the neurons in magnesium-free assay buffer, that results in increased probability of NMDA receptor activation, leading to an increased frequency and amplitude of intracellular calcium oscillations. Once neurons are incubated with the calcium indicator dye Fluo-8 AM (Tebu-bio), neuronal calcium oscillations can be monitored in real time using FLIPR® Tetra (fluorometric plate reader, Molecular Devices). With these recordings, the effect of anti-epileptic drugs can be quantified. The anti-epileptic effect of compounds, which activate directly or indirectly the Kv7 channels can be modulated by the Kv7 channel blocker XE-991. The assay was performed as described previously (Pacico N, Mingorance-Le Meur A. New In Vitro Phenotypic Assay for Epilepsy: Fluorescent Measurement of Synchronized Neuronal Calcium Oscillations. PLoS ONE 9(1) 2014) with modifications described hereafter.
Animal care followed standard procedures in accordance with swiss institutional guidelines. Dissociated neuronal cultures were obtained from cerebral cortices of embryonic Wistar rats at embryonic stage E18 (Charles River). The uterine horns were removed by caesarian surgery from deeply anesthetized rats (Isofurane) and sacrificed by decapitation. The embryos were decapitated by closing forceps. The brains were isolated and dissected one by one in ice-cold PBS (Life Technologies) under optical control using a binocular. Meninges, olfactory bulbs, and basal ganglia were removed. Cortical hemispheres (still including the hippocampus) were cut in small pieces with tweezers and placed on ice in prechilled Hibernate-E medium (Life technology). The hemispheres were then incubated in 10 mL of Hibernate-E containing 15 U/mL papain (Worthington) for 25 min at 30° C. with gentle mixing every 10 min. Genomic DNA was then digested by prolonging the incubation during 10 min at 37° C. in presence of 4 U/mL rDNase I (Ambion). The obtained suspension was then centrifuged at 800 g for 5 min and the cell pellet was resuspended in 2 mL Hibernate-E and gently dissociated by pipetting up and down 10 times with a plastic Pasteur pipette resulting in a homogenous cell suspension. This suspension was immediately filtered through a 70 µm cell strainer (MACS® SmartStrainer, Miltenyi), collected in 10 mL Hibernate-E and centrifuged at 800 g for 5 min. The cell pellet was resuspended in Neurobasal medium, supplemented with 2% B-27, 0.5 mM Glutamax-I, 100 U/mL penicillin, 100 µg/mL streptomycin (Life Technologies) and diluted at the final concentration of 300′000 cells/mL. One day before plating the cells, 384-well plates were coated with 25 µL/well of 0.1 % poly-L-lysine solution (Sigma), incubated overnight at 37° C., washed two times with sterile distilled water and allowed to dry at room temperature for >2 h. The neurons were seeded at a density of 15′000 cells/well in 50 µL/well in a 384-well black, clear-bottomed plates (Corning) and subsequently maintained in an incubator at 37° C., 5% CO2 and 95% humidity for 8 to 10 days. After 3 and 7 days, 40% of media was renewed under sterile conditions.
Neurons seeded in the assay plates were washed with Hank’s balanced salt solution (HBSS) devoid of Ca^2+ and Mg^2+, supplemented with 20 mM HEPES (Life Technologies) and 2 mM CaCl2 (Sigma), pH 7.4 (hereafter called Assay buffer) using a Biotek EL406 plate washer. Neurons were loaded with 1 µM Fluo-8 AM in Assay buffer for 15 min at 37° C., 5% CO2. […]

[1] = Rattus norvegicus, 20 min, 20 min after compound addition, AUC of fluorescence, read-out: FLIPR: IC50 [nM] 20 min
[2] = Rattus norvegicus, Cortical neurone, acute phase, ratio of AUC fluorescence before and after compound addition, rat cortical neurons, Mg-free buffer, read-out: FLIPR: IC50 [nM] acute
[3] = 20 min after compound addition, AUC of fluorescence, read-out: FLIPR: IC50 [nM] 20 min
[4] = acute phase, ratio of AUC fluorescence before and after compound addition, rat cortical neurons, Mg-free buffer, read-out: FLIPR: IC50 [nM] acute

COCC(NC(=O)NC1CC(C(F)F)C1)c1ccnc(OCC(F)(F)F)c1 (racemic) [Example 31, (±)-1-(3-Difluoromethyl-Cyclobutyl)-3-{2-Methoxy-1-[2-(2,2,2-Trifluoro-Ethoxy)-Pyridin-4-yl]-Ethyl}-Urea]
IC50 [1]: 763 nM | IC50 [2]: 190 nM

COCC(NC(=O)NC1CC(C(F)(F)F)C1)c1ccnc(OCC(F)(F)F)c1 (racemic) [Example 32, (±)-1-{2-Methoxy-1-[2-(2,2,2-Trifluoro-Ethoxy)-Pyridin-4-yl]-Ethyl}-3-(3-Trifluoromethyl-Cyclobutyl)-Urea]
IC50 [1]: 303 nM | IC50 [2]: 67 nM

CC(NC(=O)NC1CC(C(F)F)C1)c1ccnc(OC(F)F)c1 (racemic) [Example 33, (±)-1-[1-(2-Difluoromethoxy-Pyridin-4-yl)-Ethyl]-3-(3-Difluoromethyl-Cyclobutyl)-Urea]
IC50 [1]: 1510 nM | IC50 [2]: 946 nM

Cc1nc(OCC(F)(F)F)cc(C(C)NC(=O)NC23CC(C(F)(F)F)(C2)C3)n1 (racemic) [Example 34, (±)-1-{1-[2-Methyl-6-(2,2,2-Trifluoro-Ethoxy)-Pyrimidin-4-yl]-Ethyl}-3-(3-Trifluoromethyl-Bicyclo[1.1.1]Pent-1-yl)-Urea]
IC50 [1]: 291 nM | IC50 [2]: 247 nM

O=C(NCc1cccc(C(F)(F)F)c1)NC1CC(C(F)(F)F)C1 (single isomer, unassigned) [Example 50, 1-(3-(Trifluoromethyl)Benzyl)-3-(3-(Trifluoromethyl)Cyclobutyl)Urea]
IC50 [3]: 82 nM | IC50 [4]: 68 nM

O=C(NCc1cccc(C(F)(F)F)c1)NC1CC(C(F)(F)F)C1 (single isomer, unassigned) [Example 51, 1-(3-(Trifluoromethyl)Benzyl)-3-(3-(Trifluoromethyl)Cyclobutyl)Urea]
IC50 [3]: 515 nM | IC50 [4]: 363 nM

O=C(NCc1cccc(C(F)(F)F)c1)NC1CC(C(F)F)C1 (single isomer, unassigned) [Example 52, 1-(3-(Difluoromethyl)Cyclobutyl)-3-(3-(Trifluoromethyl)Benzyl)Urea]
IC50 [3]: 738 nM | IC50 [4]: 660 nM

Cc1nc(OCC(F)(F)F)cc([C@H](C)NC(=O)NC23CC(C(F)(F)F)(C2)C3)n1 (single isomer, unassigned) [Example 54]
IC50 [1]: 216 nM | IC50 [2]: 218 nM

O=C(NCc1ccnc(OCC(F)(F)F)c1)NC1CC(C(F)F)C1 (single isomer, unassigned) [Example 55, 1-(3-(Difluoromethyl)Cyclobutyl)-3-((2-(2,2,2-Trifluoroethoxy)Pyridin-4-yl)Methyl)Urea]
IC50 [3]: 1160 nM | IC50 [4]: 701 nM

O=C(NCc1ccnc(OCC(F)(F)F)c1)NC1CC(C(F)F)C1 (single isomer, unassigned) [Example 56, 1-(3-(Difluoromethyl)Cyclobutyl)-3-((2-(2,2,2-Trifluoroethoxy)Pyridin-4-yl)Methyl)Urea]
IC50 [3]: 547 nM | IC50 [4]: 123 nM

C[C@H](NC(=O)NC1CC(C(F)F)C1)c1cccc(OC(F)(F)F)c1 (single isomer, unassigned) [Example 57]
IC50 [3]: 314 nM | IC50 [4]: 146 nM

C[C@H](NC(=O)NC1CC(C(F)F)C1)c1cccc(OC(F)(F)F)c1 (single isomer, unassigned) [Example 58]
IC50 [3]: 105 nM | IC50 [4]: 51 nM

O=C(NCc1cccc(C(F)(F)F)c1)NC1CC(F)(F)C1 [Example 1, 1-(3,3-Difluoro-Cyclobutyl)-3-(3-Trifluoromethyl-Benzyl)-Urea]
IC50 [1]: 855 nM | IC50 [2]: 486 nM

CC(NC(=O)NC12CC(C1)C2)c1cccc(C(F)(F)F)c1 (centres unmarked) [Example 2, 1-Bicyclo[1.1.1]Pent-1-yl-3-[1-(3-Trifluoromethyl-Phenyl)-Ethyl]-Urea]
IC50 [1]: 466 nM | IC50 [2]: 291 nM

CC(NC(=O)NC1CC(C(F)F)C1)c1cccc(C(F)(F)F)c1 (centres unmarked) [Example 3, 1-(3-Difluoromethyl-cyclobutyl)-3-[1-(3-trifluoromethylphenyl)-ethyl]-urea]
IC50 [1]: 334 nM | IC50 [2]: 188 nM

CC(NC(=O)NC12CC(F)(C1)C2)c1cccc(C(F)(F)F)c1 (centres unmarked) [Example 4, 1-(3-Fluoro-bicyclo[1.1.1]pent-1-yl)-3-[1-(3-trifluoromethylphenyl)-ethyl]-urea]
IC50 [1]: 1060 nM | IC50 [2]: 138 nM

CC(NC(=O)NC12CC(C(F)F)(C1)C2)c1cccc(C(F)(F)F)c1 (centres unmarked) [Example 5, 1-(3-Difluoromethyl-bicyclo[1.1.1]pent-1-yl)-3-[1-(3-trifluoromethyl-phenyl)-ethyl]-urea]
IC50 [1]: 216 nM | IC50 [2]: 296 nM

CC(NC(=O)NC12CC(C1)C2)c1cccc(OC(F)(F)F)c1 (centres unmarked) [Example 6, 1-Bicyclo[1.1.1]Pent-1-yl-3-[1-(3-Trifluoromethoxy-Phenyl)-Ethyl]-Urea]
IC50 [1]: 271 nM | IC50 [2]: 126 nM

CC(NC(=O)NC1CC(C(F)F)C1)c1cccc(OC(F)(F)F)c1 (centres unmarked) [Example 7, 1-(3-Difluoromethyl-cyclobutyl)-3-[1-(3-trifluoromethoxyphenyl)-ethyl]-urea]
IC50 [1]: 100 nM | IC50 [2]: 63 nM

CC(NC(=O)NC12CC(F)(C1)C2)c1cccc(OC(F)(F)F)c1 (centres unmarked) [Example 8, 1-(3-Fluoro-bicyclo[1.1.1]pent-1-yl)-3-[1-(3-trifluoromethoxyphenyl)-ethyl]-urea]
IC50 [1]: 331 nM | IC50 [2]: 168 nM

O=C(NC1CC(O)(C(F)(F)F)C1)NC(c1cccc(C(F)(F)F)c1)C(F)F (centres unmarked) [Example 9, 1-[2,2-Difluoro-1-(3-Trifluoromethyl-Phenyl)-Ethyl]-3-(3-Hydroxy-3-Trifluoromethyl-Cyclobutyl)-Urea]
IC50 [1]: 1420 nM | IC50 [2]: 766 nM

CC1(NC(=O)NC(c2cccc(C(F)(F)F)c2)C(F)F)CC(F)(F)C1 (centres unmarked) [Example 10, 1-(3,3-Difluoro-1-Methyl-Cyclobutyl)-3-[2,2-Difluoro-1-(3-TrifluoromethylPhenyl)-Ethyl]-Urea]
IC50 [1]: 51 nM | IC50 [2]: 57 nM

CC(NC(=O)NC12CC(C1)C2)c1cccc(OC(F)F)c1 (centres unmarked) [Example 11, 1-Bicyclo[1.1.1]Pent-1-yl-3-[1-(3-Difluoromethoxy-Phenyl)-Ethyl]-Urea]
IC50 [1]: 1360 nM | IC50 [2]: 741 nM

O=C(NC(CO)c1cccc(C(F)(F)F)c1)NC12CC(C(F)F)(C1)C2 (centres unmarked) [Example 12, 1-(3-Difluoromethyl-Bicyclo[1.1.1]Pent-1-yl)-3-[2-Hydroxy-1-(3-Trifluoromethyl-Phenyl)-Ethyl]-Urea]
IC50 [1]: 164 nM | IC50 [2]: 154 nM

O=C(NC(c1cccc(C(F)(F)F)c1)C(F)F)NC12CC(C(F)F)(C1)C2 (centres unmarked) [Example 13, 1-(3-Difluoromethyl-bicyclo[1.1.1]pent-1-yl)-3-[2,2-difluoro-1-(3-trifluoromethyl-phenyl)-ethyl]-urea]
IC50 [1]: 41 nM | IC50 [2]: 14 nM

COCC(NC(=O)NC12CC(C(F)F)(C1)C2)c1cccc(C(F)(F)F)c1 (centres unmarked) [Example 14, 1-(3-Difluoromethyl-bicyclo[1.1.1]pent-1-yl)-3-[2-methoxy-1-(3-trifluoromethyl-phenyl)-ethyl]-urea]
IC50 [1]: 79 nM | IC50 [2]: 37 nM

O=C(NCc1cccc(C(F)(F)F)c1F)NC12CC(C(F)F)(C1)C2 [Example 15, 1-(3-Difluoromethyl-bicyclo[1.1.1]pent-1-yl)-3-(2-fluoro-3-trifluoromethyl-benzyl)-urea]
IC50 [1]: 960 nM | IC50 [2]: 619 nM

O=C(NCc1cc(F)cc(C(F)(F)F)c1)NC12CC(C(F)F)(C1)C2 [Example 16, 1-(3-Difluoromethyl-bicyclo[1.1.1]pent-1-yl)-3-(3-fluoro-5-trifluoromethyl-benzyl)-urea]
IC50 [1]: 848 nM | IC50 [2]: 716 nM
